Columns and labels:
[1] = molecular target: T1, thromboxane A2 receptor (Cavia porcellus, UniProt A0A286Y4I8); test: Thromboxane A2 antagonistic effect: inhibition of U-46619-induced platelet aggregation in guinea-pig platelet-rich plasma; format: cell-based, guinea-pigs; conditions: guinea-pig PRP, U-46619 2 μg/ml, 2 min at 37° C.; read-out: IC50 (50% inhibition against platelet aggregation)
T1 construct: platelet-rich plasma; endogenous in cells; host or cells: guinea-pig platelets in platelet-rich plasma
T1 sequence (A0A286Y4I8 1-347): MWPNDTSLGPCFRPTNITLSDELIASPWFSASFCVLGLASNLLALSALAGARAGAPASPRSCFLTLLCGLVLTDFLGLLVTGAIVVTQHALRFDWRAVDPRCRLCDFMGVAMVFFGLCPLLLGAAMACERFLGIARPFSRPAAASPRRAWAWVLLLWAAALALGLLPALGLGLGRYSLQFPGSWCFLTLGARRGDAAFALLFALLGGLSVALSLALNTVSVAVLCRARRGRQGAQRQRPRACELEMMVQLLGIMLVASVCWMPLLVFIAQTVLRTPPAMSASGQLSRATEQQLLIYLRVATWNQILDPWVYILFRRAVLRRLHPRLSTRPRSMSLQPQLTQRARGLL
Procedure: Blood was collected from the abdominal aorta of guinea-pigs (about 400 g wt.) into 1/10 volume of 3.8% sodium citrate, and then platelet-rich plasma (PRP: 6×10^5 cells/μl) was obtained by centrifugation. A cuvette was filled with PRP 190 μl and set in an aggregometer (Hema Tracer I; Niko Bioscience). Incubation was carried out for 2 min. at 37° C. after the addition of 1 μl of dimethyl sulfoxide solution of test compounds. To the PRP, 10 μl of U-46619 (Cayman), a thromboxane A2 /prostaglandin H2 receptor agonist and potent platelet aggregation inducer, was added at the final concentration of 2 μg/ml, and platelet aggregation was measured by an aggregometer.

[2] = molecular target: T2, thromboxane A2 synthetase (Homo sapiens, UniProt P24557); test: Inhibitory effect on thromboxane A2 synthetase (human platelet membrane fraction, thromboxane B2 RIA); format: biochemical; conditions: 3 min at 25° C., read-out: IC50 (50% inhibition of the enzyme activity)
T2 construct: human platelet membrane fraction (RAN) as a source of thromboxane A2 synthetase; purchased RAN; host or cells: human platelet membrane fraction
T2 sequence (P24557 1-533): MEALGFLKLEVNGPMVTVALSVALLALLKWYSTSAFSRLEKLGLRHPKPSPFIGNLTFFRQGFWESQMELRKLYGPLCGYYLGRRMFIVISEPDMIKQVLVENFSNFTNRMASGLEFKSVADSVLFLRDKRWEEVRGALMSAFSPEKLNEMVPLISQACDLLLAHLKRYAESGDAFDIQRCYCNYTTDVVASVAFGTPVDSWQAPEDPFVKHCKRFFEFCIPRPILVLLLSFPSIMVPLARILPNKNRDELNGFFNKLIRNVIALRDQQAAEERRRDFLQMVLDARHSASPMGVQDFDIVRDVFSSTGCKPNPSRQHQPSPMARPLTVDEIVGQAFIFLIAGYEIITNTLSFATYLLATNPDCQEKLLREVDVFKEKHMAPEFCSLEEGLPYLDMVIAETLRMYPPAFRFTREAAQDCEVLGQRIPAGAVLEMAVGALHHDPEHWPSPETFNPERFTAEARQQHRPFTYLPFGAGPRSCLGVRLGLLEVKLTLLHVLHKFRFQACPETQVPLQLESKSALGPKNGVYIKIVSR
Procedure: 100 μg/ml (285 μl) of the commercially available human platelet membrane fraction (RAN) as a source of thromboxane A2 synthetase, dimethyl sulfoxide solution of test compounds (10 μl) and 100 μg/ml (5 μl) of prostaglandin H2 (Cayman) were mixed and reaction was carried out for 3 min at 25° C. Amount of thromboxane B2, a stable metabolite derived from thromboxane A2 produced, was measured by RIA method (TXB2 quantification kit; NEN).

[3] = system: broncho-constriction induced by leukotriene D4; test: Inhibitory effect on broncho-constriction induced by leukotriene D4 (Konzett-Roessler method, oral); format: in vivo, male Hartley guinea-pig; conditions: Cavia porcellus, po; 30 mg/kg orally, leukotriene D4 1 μg/kg after 2 hr; indomethacin and propranolol pretreatment; read-out: Inhibition rate
Procedure: Airway resistance was evaluated according to the method of Konzett-Roessler[Naunyn-Schmiedberg's Arch. Exp. Path. Pharmak., Vol. 195, 71 (1940)]. After male Hartley guinea-pig fasted beforehand for 24 hr were anesthetized with urethane, overflowed air volume was measured under artificial ventilation as an index of broncho-constriction. 30 mg/kg (5 ml/kg) of test compounds suspended in 5% gum Arabic were administered orally to […]. Leukotriene D4 (1 μg/kg; ULTRA FINE) was administered through the cervical vein after 2 hr, and then values were measured at 2 min after the time when responses became maximum. Inhibitory rates compared to the control group were calculated based on the response rate normalized by the overflowed volume at complete closure as 100% broncho-constriction state. Indomethacin (2 mg/kg, i.v.) and propranolol (1 mg/kg, i.v.) were administered at 10 min and 5 min before the administration of leukotriene D4, respectively.

[4] = system: broncho-constriction induced by U-46619; test: Inhibitory effect on broncho-constriction induced by U-46619 (Konzett-Roessler method, oral); format: in vivo, Male hartley guinea-pigs; conditions: 0.3 mg/kg orally, 2 hrs before U-46619 4 μg/kg
Procedure: Airway resistance was evaluated according to the method of Konzett-Roessler[Naunyn-Schmiedberg's Arch. Exp. Path. Pharmak., Vol. 195, 71 (1940)]. Male hartley guinea-pigs (about 400 g wt.) were anesthetized with urethane (1.5 g/kg, i.p.) and ventilated by an artificial respirator (Model 683; Harvard). At that time, overflowed air volume above the pressure of about 12 cm H2 O was measured by using a sensor (Model 7020; Ugo basile) and the value was used as an index of broncho-constriction. 0.3 mg/kg (5 ml/kg) of test compounds suspended in 5% gum Arabic was administered orally to Guinea-pigs fasted beforehand for 24 hr. After 2 hrs, U-46619 (4 μg/kg; Cayman) was administered through the cervical vein, and then maximal response was measured. Inhibitory rates compared to the reference group were calculated based on the response rate normalized by the complete closure as 100%.

[5] = molecular target: T3, leukotriene D4 (Cavia porcellus, UniProt Q2NNR5); test: Leukotriene D4 antagonistic effect in isolated trachea (Schild method); set-up: species or system male Hartley guinea-pigs; conditions: isolated trachea, 30 min treatment, indomethacin 3×10^-6 M, Krebs 37° C.
T3 construct: tracheas were isolated from male Hartley guinea-pigs; from tissue; host or cells: isolated trachea of male Hartley guinea-pigs
T3 sequence (Q2NNR5 1-340): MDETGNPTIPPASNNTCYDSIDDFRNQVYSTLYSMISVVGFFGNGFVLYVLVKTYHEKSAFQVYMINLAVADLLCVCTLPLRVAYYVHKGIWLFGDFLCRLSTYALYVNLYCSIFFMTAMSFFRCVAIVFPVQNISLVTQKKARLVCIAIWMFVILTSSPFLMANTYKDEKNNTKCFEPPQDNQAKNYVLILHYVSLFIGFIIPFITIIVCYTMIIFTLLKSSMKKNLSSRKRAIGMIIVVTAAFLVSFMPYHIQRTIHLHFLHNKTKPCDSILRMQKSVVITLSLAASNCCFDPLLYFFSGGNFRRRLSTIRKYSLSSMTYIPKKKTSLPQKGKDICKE
Procedure: According to an ordinary method, tracheas were isolated from male Hartley guinea-pigs, and ring specimens of approximately […] length were prepared. These specimens were suspended isotonically in organ baths that contained Krebs solution at 37° C. under a resting tension of 0.5 g. After repeated contractions with acetylcholine (1×10^-6 M; Ovisot for injection, Daiichi Seiyaku), and the first concentration-response curves was obtained by cummulative applications of leukotriene D4 (ULTRA FINE) into the organ baths. After treatments with test compounds at adequate concentrations for 30 min, the second concentration-response curves were obtained in the same manner as first applications. pKB values were calculated using these two concentration-response curves according to the method of Schild [Pharmacological Review, Vol. 9, 242 (1957)]. Indomethacin (3×10^-6 M; Sigma) was added beforehand to the organ bath to eliminate possible affections by thromboxane A2 and prostaglandin produced by stimulus of leukotriene D4 [Japan J. Pharmacol., Vol. 60, 227 (1992)].

O=C(O)CCCc1ccc(C(Cc2ccccc2)NS(=O)(=O)c2ccc(Cl)cc2)cc1 (stereo not shown) [Example 62, 4-[4-[1-(4-Chlorophenylsulfonylamino)-2-phenylethyl]phenyl]butyric Acid]
IC50 [1]: 50 nM | IC50 [2]: 4000 nM

CC(NS(=O)(=O)c1ccc(Cl)cc1)c1ccc(CCCC(=O)O)cc1 (stereo not shown) [Example 63, 4-[4-[1-(4-Chlorophenylsulfonylamino)ethyl]phenyl]butyric Acid]
IC50 [2]: 2000 nM

CCCCC(NS(=O)(=O)c1ccc(Cl)cc1)c1ccc(CCCC(=O)O)cc1 (stereo not shown) [Example 66, 4-[4-[1-(4-Chlorophenylsulfonylamino)pentyl]phenyl]butyric Acid]
IC50 [1]: 320 nM | inhibition in vivo at 30 mg/kg [3]: 81% | Inhibition rate [4]: 85% | Kb [5]: 794 nM

CCCCCC(NS(=O)(=O)c1ccc(Cl)cc1)c1ccc(CCCC(=O)O)cc1 (stereo not shown) [Example 67, 4-[4-[1-(4-Chlorophenylsulfonylamino)hexyl]phenyl]butyric Acid]
IC50 [1]: 400 nM | inhibition in vivo at 30 mg/kg [3]: 80% | Inhibition rate [4]: 86%

CC(C)CCC(NS(=O)(=O)c1ccc(Cl)cc1)c1ccc(CCCC(=O)O)cc1 (stereo not shown) [Example 71, 4-[4-[1-(4-Chlorophenylsulfonylamino)-4-methylpentyl]phenyl]butyric Acid]
IC50 [1]: 400 nM | inhibition in vivo at 30 mg/kg [3]: 68% | Kb [5]: 200 nM

O=C(O)CCCc1ccc(C(CC2CCCCC2)NS(=O)(=O)c2ccc(Cl)cc2)cc1 (stereo not shown) [Example 79, 4-[4-[1-(4-Chlorophenylsulfonylamino)-2-cyclohexylethyl]phenyl]butyric Acid]
IC50 [1]: 320 nM | Inhibition rate [4]: 55% | Kb [5]: 100 nM

O=C(O)CCCc1ccc(C(CCC2CCCCC2)NS(=O)(=O)c2ccc(Cl)cc2)cc1 (stereo not shown) [Example 80, 4-[4-[1-(4-Chlorophenylsulfonylamino)-3-cyclohexylpropyl]phenyl]butyric Acid]
IC50 [1]: 1000 nM | inhibition in vivo at 30 mg/kg [3]: 60% | Kb [5]: 126 nM

O=C(O)CCCc1ccc(C(Cc2ccc(Cl)cc2)NS(=O)(=O)c2ccc(Cl)cc2)cc1 (stereo not shown) [Example 96, 4-[4-[2-(4-Chlorophenyl)-1-(4-chlorophenylsulfonylamino)ethyl]phenyl]butyric Acid]
IC50 [1]: 630 nM | inhibition in vivo at 30 mg/kg [3]: 43% | Inhibition rate [4]: 89% | Kb [5]: 1000 nM

Cc1ccc(CC(NS(=O)(=O)c2ccc(Cl)cc2)c2ccc(CCCC(=O)O)cc2)cc1 (stereo not shown) [Example 97, 4-[4-[1-(4-Chlorophenylsulfonylamino)-2-(p-tolyl)ethyl]phenyl]butyric Acid]
IC50 [1]: 320 nM | inhibition in vivo at 30 mg/kg [3]: 56% | Inhibition rate [4]: 88% | pKB [5]: 5.9

O=C(O)CCCc1ccc(C(CCc2ccccc2)NS(=O)(=O)c2ccc(Cl)cc2)cc1 (stereo not shown) [Example 98, 4-[4-[1-(4-Chlorophenylsulfonylamino)-3-phenylpropyl]phenyl]butyric Acid]
IC50 [1]: 320 nM | inhibition in vivo at 30 mg/kg [3]: 57% | Inhibition rate [4]: 84% | Kb [5]: 398 nM

CCCCCCC(NS(=O)(=O)c1ccc(Cl)cc1)c1ccc(CCCC(=O)O)cc1 (stereo not shown) [Example 99, 4-[4-[1-(4-Chlorophenylsulfonylamino)heptyl]phenyl]butyric Acid]
IC50 [1]: 320 nM | inhibition in vivo at 30 mg/kg [3]: 64% | Kb [5]: 126 nM

CCCCC(NS(=O)(=O)c1ccc(Cl)cc1)c1ccc(CCCCC(=O)O)cc1 (stereo not shown) [Example 102, 5-[4-[1-(4-Chlorophenylsulfonylamino)pentyl]phenyl]valeric Acid]
inhibition in vivo at 30 mg/kg [3]: 50% | Kb [5]: 200 nM

CCCCCC(NS(=O)(=O)c1ccc(Br)cc1)c1ccc(CCCC(=O)O)cc1 (stereo not shown) [Example 104, 4-[4-[1-(4-Bromophenylsulfonylamino)hexyl]phenyl]butyric Acid]
inhibition in vivo at 30 mg/kg [3]: 83%

CCCCCC(NS(=O)(=O)c1ccc(F)cc1)c1ccc(CCCC(=O)O)cc1 (stereo not shown) [Example 105, 4-[4-[1-(4-Fluorophenylsulfonylamino)hexyl]phenyl]butyric Acid]
inhibition in vivo at 30 mg/kg [3]: 82%

CCCCCC(NS(=O)(=O)c1ccc(Cl)cc1)c1ccc(CCCCC(=O)O)cc1 (stereo not shown) [Example 106, 5-[4-[1-(4-Chlorophenylsulfonylamino)hexyl]phenyl]valeric Acid]
inhibition in vivo at 30 mg/kg [3]: 58% | Kb [5]: 126 nM

CC(C)CCCC(NS(=O)(=O)c1ccc(Cl)cc1)c1ccc(CCCC(=O)O)cc1 (stereo not shown) [Example 107, 4-[4-[1-(4-Chlorophenylsulfonylamino)-5-methylhexyl]phenyl]butyric Acid]
IC50 [1]: 250 nM | inhibition in vivo at 30 mg/kg [3]: 83% | Kb [5]: 100 nM

CC(C)CCCCC(NS(=O)(=O)c1ccc(Cl)cc1)c1ccc(CCCC(=O)O)cc1 (stereo not shown) [Example 108, 4-[4-[1-(4-Chlorophenylsulfonylamino)-6-methylheptyl]phenyl]-butyric Acid]
IC50 [1]: 500 nM | inhibition in vivo at 30 mg/kg [3]: 82% | Kb [5]: 158 nM
